Assays:
GPR35 [1] = target: T1, GPR35 (Homo sapiens, UniProt Q9HC97); experiment: Ca2+ mobilization assay (Fluo-4) in HEK-GPR35-Gqo5 cells; format: cell-based; details: for Ca2+ moblization (HEK-GPR35-Gqo5): HEK293 cells co-expressing GPR35 and Gqo5, Fluo-4, compounds 10 μM; for Ca2+ mobilization signal in cells co-expressing GPR35 and Gqo5: engineered HEK293, 10 μM
T1 construct: myc; expressed in transfected cells; host or cells: HEK293, transient co-transfection (Lipofectamine LTX)

GPR35 [2] = experiment: DMR desensitization / antagonism mode against GPR35 agonist-induced DMR in HT29 cells; format: cell-based, human; details: HT29 cells pretreated with compound, then GPR35 agonist
hERG channel = hERG channel (Homo sapiens, UniProt Q12809); experiment: Automated patch clamp recording of hERG tail current (IonWorks); details: hERG tail current ratio post/pre-compound, 50 uM
Sequence of hERG channel (Q12809 whole entry): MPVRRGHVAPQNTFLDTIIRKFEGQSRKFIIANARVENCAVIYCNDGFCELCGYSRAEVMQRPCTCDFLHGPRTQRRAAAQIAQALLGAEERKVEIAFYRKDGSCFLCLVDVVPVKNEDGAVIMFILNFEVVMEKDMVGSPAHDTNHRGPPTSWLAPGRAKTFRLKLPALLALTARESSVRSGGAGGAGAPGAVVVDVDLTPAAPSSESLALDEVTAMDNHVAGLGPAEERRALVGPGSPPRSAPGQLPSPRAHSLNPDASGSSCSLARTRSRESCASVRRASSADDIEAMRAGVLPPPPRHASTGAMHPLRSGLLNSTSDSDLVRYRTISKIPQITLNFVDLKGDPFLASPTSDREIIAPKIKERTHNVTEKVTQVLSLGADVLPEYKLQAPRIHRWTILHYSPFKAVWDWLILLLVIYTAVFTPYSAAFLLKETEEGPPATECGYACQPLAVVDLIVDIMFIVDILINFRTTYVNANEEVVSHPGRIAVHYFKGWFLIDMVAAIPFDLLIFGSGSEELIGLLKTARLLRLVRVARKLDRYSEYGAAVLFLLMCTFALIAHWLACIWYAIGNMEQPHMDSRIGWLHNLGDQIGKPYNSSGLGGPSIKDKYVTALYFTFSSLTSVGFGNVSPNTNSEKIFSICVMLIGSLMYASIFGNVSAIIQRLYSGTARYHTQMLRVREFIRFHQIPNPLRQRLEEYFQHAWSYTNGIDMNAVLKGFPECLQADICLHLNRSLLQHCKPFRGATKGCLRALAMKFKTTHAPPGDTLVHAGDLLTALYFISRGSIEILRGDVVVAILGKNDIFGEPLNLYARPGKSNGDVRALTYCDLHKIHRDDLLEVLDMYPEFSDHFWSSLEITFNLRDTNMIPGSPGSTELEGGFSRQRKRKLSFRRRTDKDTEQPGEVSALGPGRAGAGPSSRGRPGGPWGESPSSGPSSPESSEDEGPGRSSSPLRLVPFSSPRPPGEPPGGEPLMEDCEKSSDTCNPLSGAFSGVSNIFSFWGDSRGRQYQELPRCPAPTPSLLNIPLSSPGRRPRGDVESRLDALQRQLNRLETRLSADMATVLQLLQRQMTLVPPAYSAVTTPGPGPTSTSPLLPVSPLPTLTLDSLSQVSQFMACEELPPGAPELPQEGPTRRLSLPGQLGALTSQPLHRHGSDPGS

T1 sequence (Q9HC97 whole entry): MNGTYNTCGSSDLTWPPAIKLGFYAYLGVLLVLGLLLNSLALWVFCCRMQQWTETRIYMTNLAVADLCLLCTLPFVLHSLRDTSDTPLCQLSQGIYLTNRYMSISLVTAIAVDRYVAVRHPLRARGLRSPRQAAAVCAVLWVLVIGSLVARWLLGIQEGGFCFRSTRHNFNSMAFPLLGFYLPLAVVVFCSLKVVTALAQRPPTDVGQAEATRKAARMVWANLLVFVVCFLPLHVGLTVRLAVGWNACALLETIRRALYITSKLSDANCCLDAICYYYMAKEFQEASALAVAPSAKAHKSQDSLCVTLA

Structure (SMILES) | Ca2+ moblization (HEK-GPR35-Gqo5) (GPR35 [1]) | Desenstization to GPR35 agonist (GPR35 [2]) | Electrophysiology (HEK-hERG) (hERG channel) | Ca2+ mobilization signal in cells co-expressing GPR35 and Gqo5 (GPR35 [1])
CCCCCCCCc1c(C(=O)O)sc2c(Br)csc12 [Compound 21, 3-n-octyl-6-bromo-thieno[3,2-b]thiophene-2-carboxylic acid] | active | desenstized | activator | –
Cc1csc2c1sc1cc(C(=O)O)sc12 [Compound 22, 5-methyl-dithieno[3,2-b:2′,3′-d]thiophene-2-carboxylic acid] | inactive | desenstized | inactive | –
CCOC(=O)c1cc2sc3cc(C(=O)OCC)sc3c2s1 [Compound 23, diethyl dithieno[3,2-b:2′,3′-d]thiophene-2,6-dicarboxylate] | inactive | desenstized | inactive | –
OCCN(CCO)c1ccc(C=Cc2cccs2)cc1 [Compound 24, N,N-bis(2-hydroxyethyl)-4-[2-(thiophene-2-yl)vinyl]aniline] | inactive | inactive | inactive | –
COC(=O)c1ccc(C=Cc2ccc(N(C)CCO)cc2)s1 [Compound 25, methyl-5-{2-[4-(N-methyl,N-2-hydroxyethyl-amino)phenyl]ethenyl}-thiophene-2-formate] | active | desenstized | inactive | –
CN(CCO)c1ccc(C=Cc2ccc(C(=O)[O-])s2)cc1.[Li+] [Compound 26, 5-{2-[4-(N-methyl, N-2-hydroxyethyl-amino)phenyl]ethenyl}-thiophene-2-formate lithium] | active | desenstized | inactive | –
OCc1ccc(-c2cccs2)s1 [Compound 27, 2,2′-bithiophene-5-methanol] | inactive | inactive | blocker | –
O=Cc1ccc(-c2ccc(CO)s2)s1 [Compound 28, 5-hydroxymethyl-5′-formyl-2,2′-bithiophene] | inactive | desenstized | inactive | –
O=Cc1ccc(-c2cccs2)s1 [Compound 30, 2,2′-bithiophene-5-carboxaldehyde] | inactive | desenstized | blocker | –
O=C(O)c1cc(-c2ccc(F)cc2F)ccc1O [Diflunisal] | active | desenstized | activator | active
Cc1c(Nc2ncccc2C(=O)O)cccc1C(F)(F)F [Flunixin] | active | desenstized | activator | active
O=C(O)c1cc(=O)c2ccccc2[nH]1 [Kynurenic acid] | inactive | desenstized | inactive | –
O=C(O)c1cc([N+](=O)[O-])ccc1NCCCc1ccccc1 [NPPB] | active | desenstized | activator | active

— patent US20120022116A1, “COMPOSITIONS AND METHODS FOR THE TREATMENT OF PATHOLOGICAL CONDITION(S) RELATED TO GPR35 AND/OR GPR35-HERG COMPLEX” (priority 2010, published 2012)
